Reference: BindingDB's records for doi:10.1016/j.bmcl.2021.128001 (The First Affiliated Hospital of Anhui Medical University, 2021)

Each molecule was assayed against T1, Peptidase (Staphylococcus aureus, UniProt Q7DHH4) (assay: Binding affinity to Staphylococcus aureus PBP2a assessed as dissociation constant by SPR assay).
T1 sequence (Q7DHH4 whole entry): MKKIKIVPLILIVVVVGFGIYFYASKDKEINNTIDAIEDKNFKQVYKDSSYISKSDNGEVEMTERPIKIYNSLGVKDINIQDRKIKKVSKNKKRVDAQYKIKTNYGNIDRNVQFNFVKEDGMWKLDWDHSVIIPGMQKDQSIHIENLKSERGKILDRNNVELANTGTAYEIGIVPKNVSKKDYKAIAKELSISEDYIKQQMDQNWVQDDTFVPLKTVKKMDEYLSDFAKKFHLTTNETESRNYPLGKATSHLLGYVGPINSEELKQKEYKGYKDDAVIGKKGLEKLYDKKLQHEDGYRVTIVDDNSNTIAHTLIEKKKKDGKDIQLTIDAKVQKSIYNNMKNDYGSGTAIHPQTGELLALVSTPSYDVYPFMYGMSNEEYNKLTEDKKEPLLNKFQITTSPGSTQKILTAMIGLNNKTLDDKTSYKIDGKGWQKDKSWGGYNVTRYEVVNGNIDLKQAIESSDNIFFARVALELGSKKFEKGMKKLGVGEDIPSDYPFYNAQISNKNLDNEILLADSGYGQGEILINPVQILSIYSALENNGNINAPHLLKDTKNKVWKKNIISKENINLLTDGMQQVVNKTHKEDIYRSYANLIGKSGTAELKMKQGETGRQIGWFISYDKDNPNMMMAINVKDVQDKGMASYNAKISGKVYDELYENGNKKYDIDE

Point of comparison: `COc1ccc(-c2cc(=O)oc3c(C)c(OCC(=O)N[C@@H](Cc4c[nH]c5ccc(O)cc45)C(=O)O)ccc23)cc1`, koff 0.0214 s⁻¹. Against it:
- COc1cc2c(c(OC)c1OC)-c1ccc(NCC(=O)NCCc3c[nH]c4ccccc34)c(=O)cc1[C@@H](NC(C)=O)CC2 — within 1.5-fold, 0.0207 s⁻¹
- Cc1ccc(NC(=O)[C@H](Cc2c[nH]c3ccccc23)NC(=O)C2CCN(C(=O)CNC(=O)OC(C)(C)C)CC2)cc1 — within 1.5-fold, 0.0253 s⁻¹
- COc1ccc(NC(=O)[C@H]2Oc3c(c(=O)oc4ccccc34)[C@@H]2c2ccc(CCCN3CCCC3=O)cc2)cc1 — within 1.5-fold, 0.0284 s⁻¹
